We go through four compounds from US8710069B2, “Opioid-nornicotine codrugs combinations for pain management” (University of Kentucky Research Foundation, priority 2008, dated 2014).

Values joined by “and” are separate entries in the source; they are usually repeats but may differ in a detail not shown here. Equal values may be shown once.

In data set [1] the test system is Rat. The class given is in vivo. The settings on record: IT nornicotine perchlorate 10 ug/10 ul, Day 1. Here is the method:
• Experiment: Tail-Flick—Al at 40%; cut-off 10 sec. • Measurements will be taken at baseline (2×), 5, 10, 15, 30, 45, 60, 90, 120 minutes after drug administration. • Drug Treatment: • […] will be administered in a 10 ul vol., followed by a 10 ul saline flush. • Both R- & S-nornicotine will be tested. • Preparation of Solution: • 10 ug in 10 ul vol. • 100 ug in 100 ul vol. • […]. • 1 mg in 1 ml=10 mg/10 ml vol. • Drug Administration Schedule: […]

Data set [2] relates to Rat. The data set can be described thus: Tail-Flick test after intrathecal (IT) injection, AI 40%, cut-off 10 sec. The class given is in vivo. The settings on record: IT nornicotine perchlorate 10 ug/10 ul alone, Day 1, one rat per line, cutoff 10 sec; for Tail-Flick 5 min.: 5 min after injection; for Tail-Flick 10 min.: 10 min after injection; for Tail-Flick 15 min.: 15 min after injection; for Tail-Flick 30 min.: 30 min after injection; for Tail-Flick 45 min.: 45 min after injection; for Tail-Flick 60 min.: 60 min after injection. Here is the method:
• Experiment: Tail-Flick—Al at 40%; cut-off 10 sec. • Measurements will be taken at baseline (2×), 5, 10, 15, 30, 45, 60, 90, 120 minutes after drug administration. • Drug Treatment: • […] will be administered in a 10 ul vol., followed by a 10 ul saline flush. • Both R- & S-nornicotine will be tested. • Preparation of Solution: • 10 ug in 10 ul vol. • 100 ug in 100 ul vol. • […]. • 1 mg in 1 ml=10 mg/10 ml vol. • Drug Administration Schedule:
IT—Narnicotine Perchlorate—Day 1 Tail-Flick—IITC Life Science Model 33 Series 8 • Al=40% Cutoff=10 sec. […]
On the technique in general: Thermal pain tests record how soon the animal reacts.

The conditions of data set [3]: following peripheral administration of nicotine; cited from earlier work.
For data set [4] the following is noted: following repeated nicotine dosing; cited from earlier work.

Consider `c1cncc([C@H]2CCCN2)c1` [R, R-nornicotine], for which, in the data set with Rat [1], the “Behavior: side effects” value is reported as “no noticeable side effects”. Besides, in the data set with Rat [2], the “Tail-Flick 5 min.” value is 3.04 s and 5.00 s and 5.47 s and 2.16 s and 6.67 s; the “Tail-Flick 10 min.” value is 2.23 s and 4.08 s and 2.53 s and 1.80 s and 5.95 s; the “Tail-Flick 15 min.” value is 3.16 sec and 4.34 sec and 2.82 sec (2×) and 2.86 sec; the “Tail-Flick 30 min.” value was 2.55 s and 3.13 s and 3.90 s and 2.73 s and 4.14 s. In the data set on Rat [2], the “Tail-Flick 45 min.” value is 3.13 s and 2.87 s and 4.26 s and 2.40 s and 4.95 s; the “Tail-Flick 60 min.” value was 2.19 s and 2.75 s and 3.12 s and 2.63 s and 3.93 s.

`c1cncc([C@@H]2CCCN2)c1` [S, S-nornicotine]: the “Behavior: side effects” value with Rat [1] is reported as “no obvious side effects”. In the data set with Rat [2], the “Tail-Flick 5 min.” value was 9.06 s and 8.01 s and 4.40 s and 8.17 s and 3.84 s; the “Tail-Flick 10 min.” value is 6.39 s and 5.47 s and 5.60 s and 6.21 s and 3.21 s; the “Tail-Flick 15 min.” value was 4.58 s and 4.33 s and 6.08 s and 3.29 s and 3.56 s; the “Tail-Flick 30 min.” value was 6.14 s and 3.31 s and 4.85 s and 3.47 s and 4.05 s. Further, in the data set on Rat [2], the “Tail-Flick 45 min.” value is 3.95 s and 3.57 s and 2.23 s and 4.60 s and 4.07 s; the “Tail-Flick 60 min.” value was 4.11 sec and 3.35 sec (2×) and 4.27 sec and 4.26 sec.

As to `CN1CCCC1c1cccnc1` (stereo not drawn) [nicotine], in data set [3], the “residence in the rat's brain” value was 52 min.

`c1cncc([C@@H]2CCCN2)c1` [nornicotine]: in data set [3], the “residence in the rat's brain” value is 166 min and the “residence in the rat's brain, times longer than nicotine” value was “about 3 times”. For the same compound, the “accumulation in the brain compared to nicotine” value in data set [4] is given as “about 4 fold”.
